Assay results published in patent publication US7498353B2, “Heterocyclic anti-viral compounds comprising metabolizable moieties and their uses” (priority 2005, dated 2009).

Legend:
[1] = tested on: HCV replicon in 5-2 Luc replicon-comprising cells; experiment: HCV replicon assay, luciferase readout (HEPC_REPLICON-LUC); assay type: cell-based; conditions: Hepatitis C virus; 5-2 Luc replicon cells, 50% reduction in luciferase emission; read-out: HEPC_REPLICON-LUC Result Value (IC50)
Excerpt: In one embodiment, the inhibitory activity of the metabolically active agent of the prodrug can be confirmed in a replicon assay that assesses the ability of a test compound to block or inhibit HCV replication in replicon cells. One example of a suitable replicon assay is the liver cell-line Huh 7-based replicon assay described in Lohmann et al., 1999, Science 285:110-113. A specific example of this replicon assay which utilizes luciferase translation is provided in the Examples Section. In one embodiment of this assay, the amount of test prodrug that yields a 50% reduction in translation as compared to a control cell (IC50) may be determined.
The inhibitory activity of certain prodrugs of the invention, which may inhibit HCV translation or replication prior to metablism and/or are metabolized into active agents, was confirmed using an HCV replicon assay. The HCV replicon can include such features as the HCV 5′ untranslated region including the HCV IRES, the HCV 3′ untranslated region, selected HCV genes encoding HCV polypeptides, selectable markers, and a reporter gene such as luciferase, GFP, etc. In the assay, actively dividing 5-2 Luc replicon-comprising cells (obtained from Ralf Bartenschlager; see Lohmann et al., 1999, Science 285:110-113) were seeded at a density of between about 5,000 and 7,500 cells/well onto 96 well plates (about 90 μl of cells per well) and incubated at 37° C. and 5% CO2 for 24 hours. Then, the test prodrug (in a volume of about 10 μl) was added to the wells at various concentrations and the cells were incubated for an additional 24-48 hours before luciferase assay. The media was aspirated from each well and Bright-Glo (Promega, Madison, Wis.) luciferase assay reagents were added to each well according to the manufacturer's instructions. Briefly, the Bright-Glo reagent was diluted 1:1 with PBS and 100 μl of diluted reagent was added to each well. After 5 min of incubation at room temperature, luciferin emission was quantified with a luminometer. In this assay, the amount of test prodrug that yielded a 50% reduction in luciferase emission (IC50) was determined. This IC50 value may represent the antiviral activity of the prodrug itself, the activity of prodrug transformed into its active metabolized form, or a combination of the two.

[2] = tested on: HCV NS5A protein in 9-13 replicon cells; experiment: Quantitative Western blot replicon assay (HEPC_REPLICON-ICWESTERN); assay type: cell-based, Hepatitis C virus (HCV); conditions: Hepatitis C virus; 9-13 replicon cells, 50% reduction in NS5A protein; read-out: HEPC_REPLICON-ICWESTERN Result Value (IC50)
Procedure: Alternatively, the inhibitory activity of the metabolically active agents of the prodrugs can be confirmed using a quantitative Western immunoblot assay utilizing antibodies specific for HCV non-structural proteins, such as NS3, NS4A NS5A and NS5B. In one embodiment of this assay, replicon cells are treated with varying concentrations of test prodrug to determine the concentration of the metabolically active agent of the test prodrug that yields a 50% reduction in the amount of a non-structural protein produced as compared to a control sample (IC50). A single non-structural protein may be quantified or multiple non-structural proteins may be quantified. Antibodies suitable for carrying out such immunoblot assays are available commercially (e.g., from BIODESIGN International, Saco, Me.).
Certain prodrugs of the invention, which may inhibit HCV translation or replication prior to metablism and/or are metabolized into active agents, were also tested for their ability to inhibit HCV replication using a quantitative Western blot analysis with antibodies specific for the HCV NS5A or other non-structural proteins. Actively dividing 9-13 replicon cells were seeded into 6-well plates at a density of 1×10^5 cells/well in a volume of 2 ml/well and incubated at 37° C. and 5% CO2 for 24 hours. Various concentrations of test prodrugs (in a volume of 10 ul) were added to the wells and the cells incubated for another 48 hours. Protein samples were prepared from the cultured cells, resolved on a SDS-PAGE gel and transferred to a nitrocellulose membrane. The membrane was blocked with 5% non-fat milk in PBS for 1 hour at room temperature. Primary antibody (anti NS5A antibody; BIODESIGN International, Saco, Me.) incubation was performed for 1 hour at room temperature, after which the membrane was washed 3 times (for 15 min per time) with PBST (PBS plus 0.1% Tween 20). Horseradish peroxidase conjugated secondary antibody incubation was performed for 1 hour at room temperature and the membrane was washed 3 times (for 15 min per time) with PBST. The membrane was then soaked in substrate solution (Pierce) and exposed to a film or quantified using an imager. In this assay, the amount of test prodrug that is believed to be transformed into an active agent under the given conditions that yielded a 50% reduction in the amount of NS5A protein translated as compared to a control sample (IC50) was determined.

Compound	IC50 [1] [nM]	IC50 [2] [nM]
NCCN(C(=O)C(Cl)Cl)c1cccc(-c2cc(-c3c(Cl)cccc3Cl)no2)c1 [Cpd. No. 16, N-(2-Aminoethyl)-2,2-dichloro-N-(3-(3-(2,6-dichlorophenyl)isoxazol-5-yl)phenyl)acetamide]	1000 to 20000	1000 to 20000
NC(CCC(=O)CCN(C(=O)C(Cl)Cl)c1ccnc(-c2cc(-c3c(Cl)cccc3Cl)no2)c1)C(=O)O (centres unmarked) [Cpd. No. 5, 2-Amino-7-(2,2-dichloro-N-(2-(3-(2,6-dichlorophenyl)isoxazol-5-yl)pyridin-4-yl)acetamido)-5-oxoheptanoic acid]	< 1000	< 1000
CC(C)OC(=O)OCN(C(=O)C(Cl)Cl)c1ccnc(-c2cc(-c3c(Cl)cccc3Cl)no2)c1 [Cpd. No. 57, (2,2-Dichloro-N-(2-(3-(2,6-dichlorophenyl)isoxazol-5-yl)pyridin-4-yl)acetamido)methyl Isopropyl Carbonate]	1000 to 20000	1000 to 20000
CCC(C)C(N)C(=O)NC(C(=O)CCN(C(=O)C(Cl)Cl)c1ccnc(-c2cc(-c3c(Cl)cccc3Cl)no2)c1)C(C)C (centres unmarked) [Cpd. No. 52, 2-Amino-N-(6-(2,2-dichloro-N-(2-(3-(2,6-dichlorophenyl)isoxazol-5-yl)pyridin-4-yl)acetamido)-2-methyl-4-oxohexan-3-yl)-3-methylpentanamide]	< 1000	< 1000
CC(C)[C@H](NC(=O)OC(C)(C)C)C(=O)N[C@H](CN(C(=O)C(Cl)Cl)c1cccc(-c2cc(-c3c(Cl)cccc3Cl)no2)c1)C(C)C [Cpd. No. 27, tert-Butyl (S)-1-((S)-1-(2,2-Dichloro-N-(3-(3-(2,6-dichlorophenyl)isoxazol-5-yl)phenyl)acetamido)-3-methylbutan-2-ylamino)-3-methyl-1-oxobutan-2-ylcarbamate]	> 20000	–
CC(C)C(N)C(=O)NC(C(=O)CCN(C(=O)C(Cl)Cl)c1ccnc(-c2cc(-c3c(Cl)cccc3Cl)no2)c1)C(C)C (centres unmarked) [Cpd. No. 48, 2-Amino-N-(6-(2,2-dichloro-N-(2-(3-(2,6-dichlorophenyl)isoxazol-5-yl)pyridin-4-yl)acetamido)-2-methyl-4-oxohexan-3-yl)-3-methylbutanamide]	< 1000	< 1000
CCC(C)C(NC(=O)OC(C)(C)C)C(=O)NC(C(=O)CCN(C(=O)C(Cl)Cl)c1ccnc(-c2cc(-c3c(Cl)cccc3Cl)no2)c1)C(C)C (centres unmarked) [Cpd. No. 51, tert-Butyl 1-(6-(2,2-Dichloro-N-(2-(3-(2,6-dichlorophenyl)isoxazol-5-yl)pyridin-4-yl)acetamido)-2-methyl-4-oxohexan-3-ylamino)-3-methyl-1-oxopentan-2-ylcarbamate]	< 1000	< 1000
CC(C)C(NC(=O)CN)C(=O)CCN(C(=O)C(Cl)Cl)c1ccnc(-c2cc(-c3c(Cl)cccc3Cl)no2)c1 (centres unmarked) [Cpd. No. 50, N-(4-(2-Aminoacetamido)-5-methyl-3-oxohexyl)-2,2-dichloro-N-(2-(3-(2,6-dichlorophenyl)isoxazol-5-yl)pyridin-4-yl)acetamide]	< 1000	< 1000
CC(C)[C@@H](N)C(=O)CCN(C(=O)C(Cl)Cl)c1ccnc(-c2cc(-c3c(Cl)cccc3Cl)no2)c1 [Cpd. No. 61, (R)-N-(4-Amino-5-methyl-3-oxohexyl)-2,2-dichloro-N-(2-(3-(2,6-dichlorophenyl)isoxazol-5-yl)pyridin-4-yl)acetamide]	< 1000	–
CC(C)OCN(C(=O)C(Cl)Cl)c1ccnc(-c2cc(-c3c(Cl)cccc3Cl)no2)c1 [Cpd. No. 9, 2,2-Dichloro-N-(2-(3-(2,6-dichlorophenyl)isoxazol-5-yl)pyridin-4-yl)-N-(isopropoxymethyl)acetamide]	> 20000	–
CC(C)[C@@H](CN(C(=O)C(Cl)Cl)c1cccc(-c2cc(-c3c(Cl)cccc3Cl)no2)c1)NC(=O)CN(C)C(=O)OC(C)(C)C [Cpd. No. 25, (S)-tert-Butyl 2-(1-(2,2-Dichloro-N-(3-(3-(2,6-dichlorophenyl)isoxazol-5-yl)phenyl)acetamido)-3-methylbutan-2-ylamino)-2-oxoethyl(methyl)carbamate]	–	1000 to 20000
CC(C)[C@@H](CN(C(=O)C(Cl)Cl)c1cccc(-c2cc(-c3c(Cl)cccc3Cl)no2)c1)NC(=O)[C@H](N)c1ccccc1 [Cpd. No. 41, N-((S)-2-((R)-2-Amino-2-phenylacetamido)-3-methylbutyl)-2,2-dichloro-N-(3-(3-(2,6-dichlorophenyl)isoxazol-5-yl)phenyl)acetamide]	–	> 20000
CC[C@H](C)[C@H](NC(=O)OC(C)(C)C)C(=O)NCCN(C(=O)C(Cl)Cl)c1cccc(-c2cc(-c3c(Cl)cccc3Cl)no2)c1 [Cpd. No. 29, tert-Butyl (2S,3S)-1-(2-(2,2-Dichloro-N-(3-(3-(2,6-dichlorophenyl)isoxazol-5-yl)phenyl)acetamido)ethylamino)-3-methyl-1-oxopentan-2-ylcarbamate]	> 20000	–
CC(C)[C@H](NC(=O)OC(C)(C)C)C(=O)NCCN(C(=O)C(Cl)Cl)c1cccc(-c2cc(-c3c(Cl)cccc3Cl)no2)c1 [Cpd. No. 30, (S)-tert-Butyl 1-(2-(2,2-Dichloro-N-(3-(3-(2,6-dichlorophenyl)isoxazol-5-yl)phenyl)acetamido)ethylamino)-3-methyl-1-oxobutan-2-ylcarbamate]	> 20000	–
CC[C@H](C)[C@H](NC(=O)OC(C)(C)C)C(=O)N[C@H](CN(C(=O)C(Cl)Cl)c1cccc(-c2cc(-c3c(Cl)cccc3Cl)no2)c1)C(C)C [Cpd. No. 28, tert-Butyl (2S,3S)-1-((S)-1-(2,2-Dichloro-N-(3-(3-(2,6-dichlorophenyl)isoxazol-5-yl)phenyl)acetamido)-3-methylbutan-2-ylamino)-3-methyl-1-oxopentan-2-ylcarbamate]	> 20000	–
N[C@@H](C(=O)NCCN(C(=O)C(Cl)Cl)c1cccc(-c2cc(-c3c(Cl)cccc3Cl)no2)c1)c1ccccc1 [Cpd. No. 20, (R)-N-(2-(2-Amino-2-phenylacetamido)ethyl)-2,2-dichloro-N-(3-(3-(2,6-dichlorophenyl)isoxazol-5-yl)phenyl)acetamide]	–	1000 to 20000
CNCC(=O)NCCN(C(=O)C(Cl)Cl)c1cccc(-c2cc(-c3c(Cl)cccc3Cl)no2)c1 [Cpd. No. 36, 2,2-Dichloro-N-(3-(3-(2,6-dichlorophenyl)isoxazol-5-yl)phenyl)-N-(2-(2-(methylamino)acetamido)ethyl)acetamide]	–	1000 to 20000
CC(C)[C@@H](CN(C(=O)C(Cl)Cl)c1cccc(-c2cc(-c3c(Cl)cccc3Cl)no2)c1)NC(=O)[C@H](NC(=O)OC(C)(C)C)c1ccccc1 [Cpd. No. 23, tert-Butyl (R)-2-((S)-1-(2,2-Dichloro-N-(3-(3-(2,6-dichlorophenyl)isoxazol-5-yl)phenyl)acetamido)-3-methylbutan-2-ylamino)-2-oxo-1-phenylethylcarbamate]	–	1000 to 20000
CC(C)(C)OC(=O)N[C@H](C(=O)NCCN(C(=O)C(Cl)Cl)c1cccc(-c2cc(-c3c(Cl)cccc3Cl)no2)c1)c1ccccc1 [Cpd. No. 17, (S)-tert-Butyl 2-(2-(2,2-Dichloro-N-(3-(3-(2,6-dichlorophenyl)isoxazol-5-yl)phenyl)acetamido)ethylamino)-2-oxo-1-phenylethylcarbamate]	–	> 20000
